How the values were obtained:
EGFR, ErbB2, and ErbB3 = test: Western blot of ErbB family RTK glycosylation, phosphorylation and protein levels in glioma cells; assay type: cell-based
Method: In this study, the D54, SKMG3, U251, T98G and 42-MG glioma cell lines were used. The source of D54, SKMG3 and U251 cells has been described previously (Contessa at al., Clin Cancer Res., 16:3205-14 (2010), Lopez et al., Int J Radiat Oncol Biol Phys., 69:214-20 (2007)). The 42-MG and T98G cells were provided by Todd Waldman (Georgetown University) and Dr. Ranjit Bindra (Yale University), respectively. The cells were cultured in DMEM/F12 (D54 and T98G), DMEM (42-MG and U251) or RPMI 1640 (SKMG3)+10% FBS supplemented with penicillin and streptomycin (Gibco, Life Technologies, Grand Island, N.Y., US) in a humidified incubator with 5% CO2, and they were kept in culture no more than 6 months after resuscitation from the original stocks. […] Mycoplasma cell culture contamination was routinely checked and ruled out using a biochemical test (MycoAlert Mycoplasma Detection Kit from Lonza, Rockland, Me. USA). Tunicamycin was purchased from Calbiochem/EMD-millipore (Burlington, Mass., USA). Cetuximab and Erlotinib were purchased at Selleck Chemicals LLC (Houston, Tex., USA). Luciferin was supplied by Promega (Madison, Wis. USA). For in vitro experiments, radiation (XRT) was administered at room temperature using a Precision X-ray 320-kV orthovoltage unit at a dose rate of 2 Gy/45 seconds (PXI X-Ray Systems) with 2 mm aluminum filter. For in vivo studies, radiation was administered at room temperature using a Precision X-ray 250-kV orthovoltage unit at a dose rate of 6.42 Gy/min (PXI X-Ray Systems) with 2 mm aluminum filter. Quality Assurance for both irradiators was performed monthly using a P.T.W. 0.3 cm^3 Ionization Chamber calibrated to NIST standards and quarterly dosimetry using thermoluminescent dosimeter (TLD)-based or ferrous sulfate-based dosimeters.

D54 cells = test: Cell cycle distribution by flow cytometry; assay type: cell-based
Method: (§1) Cell cycle distribution was determined following treatment with vehicle, radiation and/or 10 uM NGI-1. Cells were trypsinized and centrifuged, washed once with ice-cold PBS, fixed with ice-cold 70% ethanol and stored overnight at −20° C. After washing twice with PBS, they were incubated for 30 minutes at room temperature in 200 μL of Guava Cell Cycle Reagent (Guava Technologies). Cytofluorometric acquisitions were performed on a LSRII cytometer (BD Biosciences). First-line analysis was performed with FlowJo software, upon gating of the events characterized by normal forward and side scatter parameters and discrimination of doublets in a FSC-A vs. FSC-H bivariate plot. Approximately 50,000 cells were analyzed per experiment.

T98G cells = test: Cell cycle distribution by flow cytometry; assay type: cell-based
Method: as §1

U251 cells = test: Cell cycle distribution by flow cytometry; assay type: cell-based
Method: as §1

AKT = test: Radiation-induced AKT activation; assay type: cell-based
H1975-OR cells = test: Cell cycle distribution by flow cytometry; assay type: cell-based; conditions: NGI-1 for 24 h, printed 45% vs 75%, higher value taken as NGI-1
Method: (§2) For the assessment of cell cycle distribution, 1×10^6 cells were collected, washed once with ice-cold PBS and fixed in ice-cold 70% ethanol overnight at −20° C. Thereafter, cells were washed twice with PBS and incubated for 30 min at room temperature in 200 μL of Guava Cell Cycle Reagent (Guava Technologies). Cytofluorometric acquisitions were performed on a LSRII cytometer (BD Biosciences). First-line analysis was performed with Flow Jo software, upon gating of the events characterized by normal forward and side scatter parameters and discrimination of doublets in a FSC-A vs. FSC-H bivariate plot. Approximately 30,000 cells were analyzed per experiment, and the mean value was obtained from 3 independent assays.

H1975 = test: Cell cycle distribution by flow cytometry; assay type: cell-based; conditions: NGI-1 for 24 h, printed 40% vs 60%, higher value taken as NGI-1
Method: as §2

HCC-827-GR cells = test: Cell cycle distribution by flow cytometry; assay type: cell-based; conditions: NGI-1 for 24 h, printed 75% vs 45%
Method: as §2

PC9-GR1 = test: Cell cycle distribution by flow cytometry; assay type: cell-based; conditions: NGI-1 for 24 h, printed 60% vs 40%
Method: as §2

PC9-GR2 = test: Cell cycle distribution by flow cytometry; assay type: cell-based; conditions: NGI-1 for 24 h, printed 80% vs 60%
Method: as §2

HCC827-GR cells = test: Confocal microscopy of EGFR and phosphorylated MET localization; assay type: cell-based; conditions: detected in control samples
Method: For immunofluorescence, HCC827-GR cell lines were grown on glass coverslips to 80% confluence. Cell cultures were washed with PBS and fixed with 4% (w/v) formaldehyde in PBS for 30 min at 37° C. After washing with PBS, cells were permeabilized with 0.1% v/v Triton X-100 in PBS for 10 min, rinsed three times in PBS and treated with 5% w/v bovine serum albumin for 1 h. Cells were then incubated overnight at 4° C. with mouse anti-EGFR pAb (sc-03; Santa Cruz Biotechnology; 1:800) and rabbit anti-MET mAb (Cell Signaling; 1:1,000) primary antibodies and for 1 h at room temperature with either Alexa Fluor 543-conjugated goat anti-rabbit IgG or Alexa Fluor 488-conjugated goat anti-mouse IgG (ThermoFisher Scientific; 1:1,000) secondary antibodies. All antibodies were diluted in PBS containing 5% w/v bovine serum albumin. Nuclei were stained using ToPro3 (Invitrogen). Confocal cellular images were captured with an inverted Zeiss LSM 510 Pascal laser confocal microscope (Carl Zeiss, Jenna, Germany), using a 63/1.4 Plan-Apochromat objective.

H3255 = conditions: Lopez-Sambrooks et al., Nat Chem Biol. 2016; cited from earlier work

## Cc1cnc(NC(=O)c2cc(S(=O)(=O)N(C)C)ccc2N2CCCC2)s1 [NGI-1, 5-(dimethylsulfamoyl)-N-(5-methyl-1,3-thiazol-2-yl)-2-(pyrrolidin-1-yl)benzamide]
EGFR, ErbB2, and ErbB3; D54 and SKMG3 cell lines
  ErbB3 protein levels: reduction of ErbB3 protein levels
EGFR, ErbB2, and ErbB3; SKMG3
  ErbB2 protein levels: reduction in ErbB2 protein levels
EGFR, ErbB2, and ErbB3; SKMG3 and D54 cell lines
  EGFR protein levels (as cause of reduced EGFR phosphorylation): not caused by decreases in EGFR protein levels
  glycosylation of EGFR, ErbB2, and ErbB3 (protein gel mobility on western blot): reduced glycosylation
  phosphorylation of EGFR, ErbB2, and ErbB3: reduced
D54 cells; 48 hours of 10 uM NGI-1, control 75%
  cells in G1 (G1 arrest): 83%
D54 cells; NGI-1 + 4 Gy, 66% without NGI-1
  cells in G1 six hours after 4 Gy: 77%
T98G cells; 48 hours of NGI-1
  G1 arrest: no arrest
T98G cells; NGI-1 + 4 Gy
  G1 arrest six hours after 4 Gy: not for either the T98G or U251 cells
U251 cells; 48 hours of 10 uM NGI-1, printed 64% vs. 72%
  cells in G1 (G1 arrest): 64%
U251 cells; NGI-1 + 4 Gy
  G1 arrest six hours after 4 Gy: not for either the T98G or U251 cells
AKT; CD8-EGFR expressing SKMG3 cells
  radiation-induced activation of AKT: not in the CD8-EGFR expressing SKMG3 cells
AKT; T98G cells
  AKT activation: does not block AKT activation
AKT; parental SKMG3 cells
  radiation-induced activation of AKT: blocks
H1975-OR cells
  cells in G1 (G1 arrest): 75%
H1975
  cells in G1 (G1 arrest): 60%
HCC-827-GR cells
  cells in G1 (G1 arrest): 75%
PC9-GR1
  cells in G1 (G1 arrest): 60%
PC9-GR2
  cells in G1 (G1 arrest): 80%
HCC827-GR cells
  EGFR detected near the cell surface: not in NGI-1 treated samples
H3255
  H3255 proliferation: significantly inhibits

From patent publication US10765638B2, “Particle formulation with polycation complex” (Yale University, priority 2017, dated 2020)
